# Experimental data as given in patent EP1946758A1, “Treatment of acute myeloid leukemia” (PIERRE FABRE MEDICAMENT, priority 2007, dated 2008).
# Assays:
# [1] = Stability in water (D2O solution followed by proton NMR); assay type: physicochemical; conditions: room temperature; for change in the NMR spectrum: 3 mg/ml
# Procedure: Sodium triptolide succinate was dissolved in D2O, and the aqueous solution was stored at room temperature.
# Stability in Water: a solution of sodium triptolide succinate in D2O can be prepared at a concentration of 3 mg/ml and stored at room temperature. The solution can be analyzed by ^1H NMR at intervals of 1, 3, 5, 15, 45, 90, 180 minutes; 1, 7, 14 days; and 1, 2, 3, and 5 months.
# [2] = system: relapsed or refractory acute myeloid leukemia; experiment: Exploratory dose escalation treatment of patients with relapsed or refractory leukemias; assay type: in vivo
# Procedure: PG490-88 Na is a 14-succinyl triptolide sodium salt of triptolide (PG490).
# In this example, 29 patients with relapsed or refractory leukemias were treated. Median age was 57 years (range : 30 - 79). Sixty two percent of patients were male. Twelve dose levels from 0.150 to 13 mg/m^2/day were tested in one patient each, with an increase by 50% for each successive cohort of patients until one dose limiting toxicity (DLT) was observed. Thereafter, dose escalation was switched to a standard design using cohorts of 3 to 6 patients per dose level, with 30% dose increments.
# Among all the patients, 6 […] presented with a disease refractory to standard induction chemotherapy and the others were in 1st or 2nd relapse who had failed salvage therapy for 9 of them. […]
# [3] = Stability in blood serum (hydrolysis followed by TLC); assay type: in vitro ADME; conditions: rat serum, 37°C
# Procedure: The stability of triptolide succinate in blood serum was determined. In this study, a solution of triptolide succinate (the free acid of the sodium triptolide succinate) in DMSO was mixed with rat serum and incubated at 37°C. The mixture was assayed periodically by thin layer chromatography (TLC) to follow the hydrolysis of the triptolide succinate over time. […] After 15 minutes, the triptolide succinate spot was gone and a new spot corresponding to triptolide had appeared (Rf =0.60). Finally, after 45 minutes, the triptolide spot had also disappeared, and only low Rf material (blood serum components and decomposition products) remained.
# Stability in Blood Serum: a solution of triptolide succinate (free acid) in DMSO can be made at a concentration of 25 mg/ml, and 0.1 ml of this solution can be mixed with 0.5 ml of rat serum. The mixture was incubated at 37°C. Aliquots of the mixture should then be taken at 1, 3, 5, 15, 45 minutes and 18 hours and analyzed by thin layer chromatography (TLC). The TLC plates can be developed in 1:5 CH2Cl2/Et2O. After development, the plates can be treated with iodine vapor and examined under a UV lamp. Triptolide and triptolide succinate can be used as reference compounds (Rf =0.60, and 0.45, respectively).
# After 15 minutes, the triptolide succinate spot may be gone (Rf =0.45), and a new spot corresponding to triptolide may have appeared (Rf =0.60). After 45 minutes, the triptolide spot may also disappear, and only low Rf material (blood serum components and decomposition products) may remain.
# [4] = patients with relapsed or refractory leukemias
# [5] = recommended dose of 5.7 mg/m^2/day
compound,measurement,setting,value
"CC(C)[C@]12O[C@H]1[C@@H]1O[C@]13[C@]1(O[C@H]1C[C@H]1C4=C(CC[C@@]13C)C(=O)OC4)[C@@H]2OC(=O)CCC(=O)[O-].[Na+] [PG490-88 Na, 14-succinyl triptolide sodium salt]",change in the NMR spectrum,[1]; after 5 months,Some decomposition
same,change in the NMR spectrum,[1]; during the first three months,No appreciable change
same,stability in aqueous solution (proton NMR spectra),[1]; after five months,some decomposition
same,stability in aqueous solution (proton NMR spectra),[1]; after three months,unchanged
same,"cerebellar toxicity, patients",[2]; 7 mg/m^2/day (one grade 2 and two grade 4),3 patients
same,"cerebellar toxicity, patients",[2]; 8.5 mg/m^2/day (two grade 4),2 patients
same,response,"[2]; another patient, 8.5 mg/m^2/day, after 2 cycles of treatment",CRp: complete remission without full platelets recovery
same,"cerebellar toxicity, patients",[2]; doses > 5.7 mg/m^2/day,5 patients
same,overall response on relapsed or refractory acute myeloid leukemia,[2]; exploratory dose escalation experiments,very good response
same,response,"[2]; one patient, 5.7 mg/m^2/day, day 15 of the treatment, one cycle",complete remission (CR) with pancytopenia
same,haematological toxicity,"[2]; patient with CRp, 8.5 mg/m^2/day, after cycle 2",no haematological toxicity
same,haematological toxicity,"[2]; patient with CRp, 8.5 mg/m^2/day, after the first cycle",grade 4 aplasia lasting 20 days
same,maximum tolerated dose (MTD),[2]; [4],7 mg/m^2/day
same,recommended dose for this regimen,[2]; [4],5.7 mg/m^2/day
same,"grade 3 leucopenia (related adverse event), patients",[2]; [5],1 patient
same,other related adverse events,[2]; [5],"mild diarrhoea, nausea and vomiting"
same,haematological toxicity,"[2]; third patient (complete remission), 8.5 mg/m^2/day, after the first cycle",moderate leucopenia (grade 1 lasting 2 days)
same,haematological toxicity,"[2]; third patient (complete remission), 8.5 mg/m^2/day, during the second cycle",no haematotoxicity
same,response,"[2]; third patient, 8.5 mg/m^2/day, after 2 cycles of treatment",complete remission
Triptolide Succinate,time for hydrolysis in serum to release free triptolide,[3],less than an hour
same,species detected by TLC,[3]; after 3 minutes,only triptolide succinate may be detected
same,triptolide succinate spot (Rf =0.45) by TLC,[3]; after 15 minutes,gone
same,triptolide succinate spot (Rf =0.45) by TLC,[3]; within the first 3 to 5 minutes,most of the triptolide succinate remained
